Legend:
[1] = molecular target: T1, human GGT (Homo sapiens, UniProt P19440); test: Second-order rate constant kon of human GGT inactivation (continuous or discontinuous assay); format: biochemical
T1 construct: purchased Asahi Kasei Co., Ltd. HC-GTP (lot 603AA)
Text: (§1) Purified enzyme of E-coli GGT and crude enzyme of human GGT were employed as GGT samples for an inhibition experiment. The enzyme whose physicochemical properties are described in the Document (Hideyuki Suzuki, Hidehiko Kumagai, Tatsurokukro Tochikura “gamma-Glutamyltranspeptidase from Escherichia coli K-12: Purification and Properties” Journal of Bacteriology, December 1986, Vol. 168, No. 3, p. 1325-1331) was used as a purified enzyme of E-coli GGT. Enzyme [HC-GTP (product number), 603AA (lot number)] manufactured by Asahi Kasei Co., Ltd. was used as a crude enzyme of human GGT. The crude enzyme of human GGT contained a large amount of bovine serum albumin (BSA) to stabilize the enzyme, and the GGT concentration was 1% or lower.
In the hydrolytic assay of human GGT, the measurement was carried out in the same manner as that in the hydrolytic assay of E-coli GGT, except that the substrate concentration was changed to […] and therefore, the explanation of the common portions was omitted.
(§2) Next, a second-order rate constant for enzyme inactivation kon was measured by either a continuous assay or a discontinuous assay. Both of the continuous and discontinuous assay for measuring inhibitory activity to GGT were carried out under a pseudo-first-order reaction condition.
(§3) In the continuous assay, while the temperature was kept at 25° C., the 100 mM succinic acid-sodium hydroxide buffer solutions (pH 5.5) containing an inhibitor in various concentrations and the substrate were preincubated for equilibrium. Herein, 0.2 μM of the substrate was used for the case of E-coli GGT and 0.4 μM of the substrate was used for the case of human GGT. Thereafter, the enzyme solution of the E-coli GGT was added in a manner that the final concentration became 0.04 nM and also the human GGT crude enzyme solution was added in a manner that the final concentration became 5 μg/mL. Accordingly, the reaction was started and the release of AMC (increase of the fluorescence intensity) was continuously traced for 10 minutes.
(§4) The fluorescence intensity data obtained from the respective curves was applied to the following pseudo-first-order rate equation (2) and the observed pseudo-first-order rate constant for enzyme inactivation (kobs) was calculated by nonlinear regression analysis [Stein, R. L. et al. Biochemistry 26, 2682-2689 (1987)].
(§5) [Equation 2] [P]=[P]∞[1−exp(−kobst)] (2)
(§6) When the kobs was plotted against to the inhibitor concentration ([I]), a linear relation was obtained until the maximum extent of the experimentally possible inhibitor concentration. Therefore, the second-order rate constant for enzyme inactivation kon was calculated using the following equation (3) deduced from the kinetic mechanism.
(§7) [drawing 37] [Equation 3] kobs=kon[I]/(1+[S]/Km) (3)
(§8) Herein, S denotes 7-(γ-L-glutamylamino)-4-methylcoumarin. The substrate concentration [S] for E-coli GGT is 0.2 μM and the Km value is 0.2 μM. […] The kinetic data was obtained by nonlinear regression analysis using Kaleida graph, a program produced by Synergy Software.
Further, in the discontinuous assay, an inhibitor in various concentrations was dissolved in 100 mM succinic acid-sodium hydroxide buffer solution (pH 5.5) and the enzyme solution was added to the resulting buffer solutions. Herein, in the case of E-coli GGT, the enzyme solution was added in a manner that the final concentration became 0.4 nM and also the human GGT crude enzyme solution was added in a manner that the final concentration became 0.5 mg/mL. Accordingly, the reaction of the inhibitor and each GGT was conducted at 25° C. An aliquot (10 μL) of each of the reaction solutions were sampled at every specified time to measure the remaining enzyme activity by the above-mentioned enzyme activation method. The remaining enzyme activity at every time was analyzed by nonlinear regression using the pseudo-first-order rate equation (4) of enzyme inactivation to calculate the value of kobs.
[Equation 4] αt/α0=exp(−kobst) (4) […]

[2] = molecular target: T2, E-coli GGT (Escherichia coli, UniProt P18956); test: Second-order rate constant kon of E-coli GGT inactivation (continuous or discontinuous assay); format: biochemical, Escherichia coli K-12; details: second-order rate constant for enzyme inactivation; pH 5.5, 25° C.
T2 construct: was used as a purified enzyme of E-coli GGT; made in house
T2 sequence (P18956 26-390 limits assumed): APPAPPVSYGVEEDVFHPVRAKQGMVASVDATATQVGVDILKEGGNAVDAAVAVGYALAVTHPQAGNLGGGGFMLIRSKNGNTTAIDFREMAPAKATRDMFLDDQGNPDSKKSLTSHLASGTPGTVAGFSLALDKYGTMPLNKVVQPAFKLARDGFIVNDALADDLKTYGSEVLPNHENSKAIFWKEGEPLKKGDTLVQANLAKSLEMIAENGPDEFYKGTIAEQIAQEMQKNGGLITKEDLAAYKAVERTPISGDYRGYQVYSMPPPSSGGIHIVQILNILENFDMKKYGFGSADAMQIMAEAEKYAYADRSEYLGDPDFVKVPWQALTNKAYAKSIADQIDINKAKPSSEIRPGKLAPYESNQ
T2 sequence (P18956 391-580 limits assumed): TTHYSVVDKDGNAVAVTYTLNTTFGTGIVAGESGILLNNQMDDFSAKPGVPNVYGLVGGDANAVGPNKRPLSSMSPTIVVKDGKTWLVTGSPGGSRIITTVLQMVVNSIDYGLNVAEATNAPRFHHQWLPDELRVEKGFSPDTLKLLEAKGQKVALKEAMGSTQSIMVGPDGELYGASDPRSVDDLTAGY
Text: as §1
In the hydrolytic assay of E. coli GGT, 10 μL of a […] enzyme solution was added to a 100 mM succinic acid-sodium hydroxide buffer solution (pH 5.5) in a total volume of 1 mL containing 100 μL of 2 μM substrate aqueous solution. The product, 7-amino-4-methylcoumarin (AMC), released along with the enzyme reaction was traced continuously at 25° C. using a fluorospectrophotometer F-2000 manufactured by Hitachi Ltd. (excitation wavelength: 350 nm, emission wavelength: 440 nm). The AMC concentration was separately measured by forming a calibration curve showing the relation of the fluorescence intensity (F) and the concentration (C) using standard solutions and was calculated from the relational expression (1) of the fluorescence intensity alteration (ΔF) and concentration alteration (ΔC).
as §2, §3, §4, §5, §6, §7, §8
Further, in the discontinuous assay, an inhibitor in various concentrations was dissolved in 100 mM succinic acid-sodium hydroxide buffer solution (pH 5.5) and the enzyme solution was added to the resulting buffer solutions. […]

[3] = Chemical stability: hydrolysis ratio after storage in water at room temperature; format: physicochemical; details: stored in water at room temperature for 12 hours
Method: Herein, the hydrolysis ratios of the reactive compounds of Examples 1 to 11 were measured after the respective compounds were stored in water at room temperature. In this connection, the compounds other than the compound of Example 10 were stored in water for 12 hours and the compound of Example 10 was stored in water for 112 hours.

[4] = test system: glutamine-dependent asparagine synthetase; test: Inhibition of glutamine-dependent asparagine synthetase; format: biochemical; details: 10 mM compound, incubated for 2 hours
Text: Therefore, the phosphonic acid diester derivative (1) specifically reacts on GGT.

T1 sequence (P19440 1-380 limits assumed): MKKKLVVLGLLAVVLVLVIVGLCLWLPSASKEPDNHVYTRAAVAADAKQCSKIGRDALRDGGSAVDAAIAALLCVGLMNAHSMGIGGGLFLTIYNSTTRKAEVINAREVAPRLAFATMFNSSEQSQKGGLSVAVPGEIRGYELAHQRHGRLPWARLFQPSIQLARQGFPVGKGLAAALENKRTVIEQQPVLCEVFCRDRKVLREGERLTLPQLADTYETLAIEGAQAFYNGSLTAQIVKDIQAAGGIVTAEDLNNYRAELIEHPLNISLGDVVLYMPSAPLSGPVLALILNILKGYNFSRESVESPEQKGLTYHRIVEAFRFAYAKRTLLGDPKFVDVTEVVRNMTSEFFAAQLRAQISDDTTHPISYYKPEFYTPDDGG
T1 sequence (P19440 381-569 limits assumed): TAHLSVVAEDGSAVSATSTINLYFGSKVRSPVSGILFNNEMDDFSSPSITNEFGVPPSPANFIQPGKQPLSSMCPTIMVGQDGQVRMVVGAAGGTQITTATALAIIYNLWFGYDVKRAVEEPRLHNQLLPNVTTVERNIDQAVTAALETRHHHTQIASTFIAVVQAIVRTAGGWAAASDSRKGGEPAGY

**Q.** For COP(=O)(CCC(N)C(=O)O)Oc1cccc(CC(=O)O)c1 (stereo not drawn) [Example 11, 2-amino-4-{[3-(carboxymethyl)phenyl](methyl)phosphono}butanoic Acid], which “plot of log kon (human GGT) against pKa of aryl group, FIG. 4” value ([1]; position relative to the straight line) is on record?
**A.** deviate upward

**Q.** And the “kon of human GGT inactivation relative to the compound of Example 12” value ([1]; ratio of kon 51 to kon 0.33)?
**A.** about 155 times

**Q.** And the “kon Human GGT” value ([1]; second-order rate constant for enzyme inactivation, pH 5.5, 25° C.)?
**A.** 51 M^−1S^−1

**Q.** And the “kon E-coli GGT” value [2]?
**A.** 150 M^−1S^−1

**Q.** And the “Hydrolysis ratio (%)” value [3]?
**A.** 0%

**Q.** And the “inhibition of the function of glutamine-dependent asparagine synthetase” value [4]?
**A.** did not inhibit

From patent US8129557B2, “Phosphonic acid diester derivative and method for producing thereof” (priority 2005, dated 2012)
